For the experiment, the target named is 11β-HSD1 (Homo sapiens, UniProt P28845). Description: biochemical. To be noted: for IC50: IC50 Range, Biological Test Example 1, microsomes from CHO cells overexpressing human 11β-HSD1.
The mark [1] stands for this setting: read-out: Average % inhibition at 100 nM, Biological Test Example 1, 100 nM compound.
[2] abbreviates: read-out: Average % inhibition at 100 nM.

Structures are written as SMILES. Where two headings read alike, the source gives them in different places. Where only a bound is given, the exact number is not on record here.

Sequence of 11β-HSD1 (P28845 whole entry): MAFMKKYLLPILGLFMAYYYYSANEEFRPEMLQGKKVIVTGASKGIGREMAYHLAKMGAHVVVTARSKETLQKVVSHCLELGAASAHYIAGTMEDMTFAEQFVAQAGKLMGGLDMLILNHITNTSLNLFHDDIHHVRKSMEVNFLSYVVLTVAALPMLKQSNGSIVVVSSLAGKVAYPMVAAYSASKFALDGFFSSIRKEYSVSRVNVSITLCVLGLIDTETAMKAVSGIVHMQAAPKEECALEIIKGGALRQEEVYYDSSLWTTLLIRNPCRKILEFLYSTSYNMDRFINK

Usually IC50 stands for the concentration that gives 50% inhibition. A higher IC50 goes with weaker potency. As usually defined, the inhibition is the share of the control response that was lost under treatment. Take `C[C@@H](c1ccc(Cl)cc1)N1CC[C@](CCCO)(c2ccc(F)cc2)OC1=O` [EXAMPLE 202, (R)-3-((1S)-1-(4-chlorophenyl)ethyl)-6-(4-fluorophenyl)-6-(3-hydroxypropyl)-1,3-oxazinan-2-one]: the 50% inhibitory concentration (IC50) was less than 100 nM. Moreover, the inhibition at 0.1 µM under setting [1] was 95.9%.
The corresponding values for `CC(O)CC1(C(C)C)CCN([C@@H](C)c2ccc(-c3ccc(F)cc3F)cc2)C(=O)O1` (stereo partly drawn) [EXAMPLE 213, 3-((1S)-1-(2′,4′-difluorobiphenyl-4-yl)ethyl)-6-(2-hydroxypropyl)-6-isopropyl-1,3-oxazinan-2-one] are less than 100 nM and 79.1%.
The compound `C=CC[C@]1(c2ccc(F)cc2)CCN([C@@H](C)c2ccc(-c3nnc(C)o3)cc2)C(=O)O1` [EXAMPLE 215, (R)-6-allyl-6-(4-fluorophenyl)-3-((S)-1-(4-(5-methyl-1,3,4-oxadiazol-2-yl)phenyl)ethyl)-1,3-oxazinan-2-one] showed an IC50 of less than 100 nM. For the same compound, under setting [1], the inhibition at 0.1 µM worked out at 72.1%.
`C[C@@H](c1ccc(-c2cccs2)cc1)N1CC[C@](CCCO)(c2ccccc2)OC1=O` [EXAMPLE 216, (R)-6-(3-hydroxypropyl)-6-phenyl-3-((S)-1-(4-(thiophen-2-yl)phenyl)ethyl)-1,3-oxazinan-2-one] yielded an IC50 of less than 100 nM. Further, the inhibition at 0.1 µM under setting [1] is 92.6%.
The corresponding values for `C=CC[C@]1(c2ccc(F)cc2)CCN([C@@H](C)c2ccc(N3CCOCC3)cc2)C(=O)O1` [EXAMPLE 217, (R)-6-allyl-6-(4-fluorophenyl)-3-((S)-1-(4-morpholinophenyl)ethyl)-1,3-oxazinan-2-one] are less than 100 nM and 88%.
Turning to `CC[C@@H](c1ccc(Br)cc1)N1CC[C@](CCCO)(c2ccccc2)OC1=O` [EXAMPLE 220, (R)-3-((S)-1-(4-bromophenyl)propyl)-6-(3-hydroxypropyl)-6-phenyl-1,3-oxazinan-2-one], the half-maximal inhibitory concentration (IC50) was less than 100 nM. Besides, the inhibition at 0.1 µM under setting [2] worked out at 85.5%.
For the compound `CC(O)C[C@]1(c2ccccc2)CCN([C@@H](C)c2ccc(-c3ccc(F)cc3)cc2)C(=O)O1` (stereo partly drawn) [EXAMPLE 224, (6S)-3-((1S)-1-(4′-fluorobiphenyl-4-yl)ethyl)-6-(2-hydroxypropyl)-6-phenyl-1,3-oxazinan-2-one], the IC50 is less than 100 nM. In addition, the inhibition at 0.1 µM under setting [1] came to 97.3%.
Consider `CCC[C@]1(c2ccccc2)CCN([C@@H](C)c2ccc(-c3ccc(F)cc3F)cc2)C(=O)O1` [EXAMPLE 226, (R)-3-((S)-1-(2′,4′-difluorobiphenyl-4-yl)ethyl)-6-phenyl-6-propyl-1,3-oxazinan-2-one], for which the IC50 is less than 100 nM. Moreover, under setting [1], the inhibition at 0.1 µM is 90.7%.
Regarding `C[C@@H](c1ccc(-c2ccc(F)cc2F)cc1)N1CC[C@](CCS(C)(=O)=O)(c2ccc(F)cc2)OC1=O` [EXAMPLE 229, (S)-3-((S)-1-(2′,4′-difluorobiphenyl-4-yl)ethyl)-6-(4-fluorophenyl)-6-(2-(methylsulfonyl)ethyl)-1,3-oxazinan-2-one], the half-inhibitory concentration (IC50) is less than 100 nM. Besides, the inhibition at 0.1 µM under setting [2] came out at 81.6%.
Compound `C=CC[C@]1(c2ccc(F)cc2)CCN([C@@H](C)c2ccc(N3CCN(C)CC3)cc2)C(=O)O1` [EXAMPLE 231, (R)-6-allyl-6-(4-fluorophenyl)-3-((S)-1-(4-(4-methylpiperazin-1-yl)phenyl)ethyl)-1,3-oxazinan-2-one] displayed an IC50 of less than 100 nM. The inhibition at 0.1 µM under setting [1] amounted to 57%.
The corresponding values for `C[C@@H](c1ccc(-c2ccc(F)cc2)cc1)N1CC[C@](CCCO)(c2cccs2)OC1=O` [EXAMPLE 232, (R)-3-((S)-1-(4′-fluorobiphenyl-4-yl)ethyl)-6-(3-hydroxypropyl)-6-(thiophen-2-yl)-1,3-oxazinan-2-one] are less than 100 nM and 96.9%.
The corresponding values for `CC[C@@H](c1ccc(Br)cc1)N1CC[C@](CCCO)(c2ccc(F)cc2)OC1=O` [EXAMPLE 241, (R)-3-((S)-1-(4-bromophenyl)propyl)-6-(4-fluorophenyl)-6-(3-hydroxypropyl)-1,3-oxazinan-2-one] are less than 100 nM and 96.7%.
For `C=CC[C@]1(c2ccc(F)cc2)CCN([C@@H](C)c2ccc(C(=O)N3CCCCC3)cc2)C(=O)O1` [EXAMPLE 243, (R)-6-allyl-6-(4-fluorophenyl)-3-((S)-1-(4-(piperidine-1-carbonyl)phenyl)ethyl)-1,3-oxazinan-2-one], the IC50 is less than 100 nM. For the same compound, the inhibition at 0.1 µM under setting [1] is 38.9%.
For the compound `C[C@@H](c1ccc(-c2ccc(F)cc2)cc1)N1CC[C@](CCC(C)(C)O)(c2ccccc2)OC1=O` [EXAMPLE 248, (R)-3-((S)-1-(4′-fluorobiphenyl-4-yl)ethyl)-6-(3-hydroxy-3-methylbutyl)-6-phenyl-1,3-oxazinan-2-one], the IC50 was less than 100 nM. Moreover, the inhibition at 0.1 µM under setting [1] is 96.7%.
On the same counts, the results for `CC(=O)c1ccc(-c2ccc([C@H](C)N3CC[C@](CCCO)(c4ccccc4)OC3=O)cc2)s1` [EXAMPLE 249, (R)-3-((S)-1-(4-(5-acetylthiophen-2-yl)phenyl)ethyl)-6-(3-hydroxypropyl)-6-phenyl-1,3-oxazinan-2-one] are less than 100 nM and 96.3%.
As to `C[C@@H](c1ccc(-c2ccc(F)cc2F)cc1)N1CC[C@](CCC(N)=O)(c2ccccc2)OC1=O` [EXAMPLE 250, 3-((R)-3-((S)-1-(2′,4′-difluorobiphenyl-4-yl)ethyl)-2-oxo-6-phenyl-1,3-oxazinan-6-yl)propanamide], the IC50 was less than 100 nM. Moreover, the inhibition at 0.1 µM under setting [1] was found to be 97.1%.
On the same counts, the results for `CC(N)c1ccc(-c2ccc([C@H](C)N3CC[C@](CCCO)(c4ccccc4)OC3=O)cc2)s1` (stereo partly drawn) [EXAMPLE 251, (6R)-3-((1S)-1-(4-(5-(1-aminoethyl)thiophen-2-yl)phenyl)ethyl)-6-(3-hydroxypropyl)-6-phenyl-1,3-oxazinan-2-one] are less than 100 nM and 90.9%.
The corresponding values for `CC[C@@H](c1ccc(-c2ccc(F)cc2)cc1)N1CC[C@](CCCO)(c2ccc(F)cc2)OC1=O` [EXAMPLE 252, (R)-3-((S)-1-(4′-fluorobiphenyl-4-yl)propyl)-6-(4-fluorophenyl)-6-(3-hydroxypropyl)-1,3-oxazinan-2-one] are less than 100 nM and 99%.
`CC[C@@H](c1ccc(-c2ccc(F)cc2F)cc1)N1CC[C@](CCCO)(c2ccccc2)OC1=O` [EXAMPLE 253, (R)-3-((S)-1-(2′,4′-difluorobiphenyl-4-yl)propyl)-6-(3-hydroxypropyl)-6-phenyl-1,3-oxazinan-2-one] showed an IC50 of less than 100 nM. Moreover, the inhibition at 0.1 µM under setting [1] is 93.3%.
On the same counts, the results for `CC(O)c1ccc(-c2ccc([C@H](C)N3CC[C@](CCCO)(c4ccccc4)OC3=O)cc2)s1` (stereo partly drawn) [EXAMPLE 254, (6R)-3-((1S)-1-(4-(5-(1-hydroxyethyl)thiophen-2-yl)phenyl)ethyl)-6-(3-hydroxypropyl)-6-phenyl-1,3-oxazinan-2-one] are less than 100 nM and 96%.
For the compound `C[C@@H](c1ccc(N2CCCCS2(=O)=O)cc1)N1CC[C@](CCO)(c2ccc(F)cc2)OC1=O` [EXAMPLE 259, (S)-6-(4-fluorophenyl)-6-(2-hydroxyethyl)-3-((S)-1-(4-(1,1-dioxo-hexahydro-1,2-thiazin-2-yl)phenyl)ethyl)-1,3-oxazinan-2-one], the half-inhibitory concentration (IC50) was less than 100 nM. Moreover, the inhibition at 0.1 µM under setting [1] worked out at 43.1%.
In the case of `C[C@@H](c1ccc(-c2ccc(F)cc2F)cc1)N1CC[C@](CCC(C)(C)O)(c2ccccc2)OC1=O` [EXAMPLE 260, (R)-3-((S)-1-(2′,4′-difluorobiphenyl-4-yl)ethyl)-6-(3-hydroxy-3-methylbutyl)-6-phenyl-1,3-oxazinan-2-one], the half-maximal inhibitory concentration (IC50) is less than 100 nM. In addition, the inhibition at 0.1 µM under setting [1] was found to be 94.1%.
As for `CC[C@@H](c1ccc(-c2ccc(F)cc2F)cc1)N1CC[C@](CCCO)(c2ccc(F)cc2)OC1=O` [EXAMPLE 261, (R)-3-((S)-1-(2′,4′-difluorobiphenyl-4-yl)propyl)-6-(4-fluorophenyl)-6-(3-hydroxypropyl)-1,3-oxazinan-2-one], the IC50 was less than 100 nM. The inhibition at 0.1 µM under setting [1] came to 96.2%.
For the compound `CNCC(O)C[C@]1(c2ccc(F)cc2)CCN([C@@H](C)c2ccc(-c3ccc(F)cc3F)cc2)C(=O)O1` (stereo partly drawn) [EXAMPLE 265, (6S)-3-((S)-1-(2′,4′-difluorobiphenyl-4-yl)ethyl)-6-(4-fluorophenyl)-6-(2-hydroxy-3-(methylamino)propyl)-1,3-oxazinan-2-one], the IC50 is less than 100 nM. Further, under setting [1], the inhibition at 0.1 µM was found to be 56.8%.
The corresponding values for `C[C@@H](c1ccc(-c2ccc(F)cc2)cc1)N1CC[C@](CCCNS(C)(=O)=O)(c2ccccc2)OC1=O` [EXAMPLE 270, N-(3-((R)-3-((S)-1-(4′-fluorobiphenyl-4-yl)ethyl)-2-oxo-6-phenyl-1,3-oxazinan-6-yl)propyl)methanesulfonamide] are less than 100 nM and 96.1%.
The corresponding values for `C[C@@H](c1ccc(-c2ccc(F)cc2F)cc1)N1CC[C@](CCCOC(N)=O)(c2ccc(F)cc2)OC1=O` [EXAMPLE 272, 3-((R)-3-((S)-1-(2′,4′-difluorobiphenyl-4-yl)ethyl)-6-(4-fluorophenyl)-2-oxo-1,3-oxazinan-6-yl)propyl carbamate] are less than 100 nM and 93.8%.
In turn, `C[C@@H](c1ccccc1F)N1CC[C@](CCCO)(c2ccc(F)cc2)OC1=O` [EXAMPLE 284, (R)-6-(4-fluorophenyl)-3-((S)-1-(2-fluorophenyl)ethyl)-6-(3-hydroxypropyl)-1,3-oxazinan-2-one] had a half-inhibitory concentration (IC50) of less than 100 nM. The inhibition at 0.1 µM under setting [1] came to 97.7%.
Regarding `C[C@@H](c1ccc(F)cc1)N1CC[C@](CCCO)(c2ccc(F)cc2)OC1=O` [EXAMPLE 285, (R)-6-(4-fluorophenyl)-3-((S)-1-(4-fluorophenyl)ethyl)-6-(3-hydroxypropyl)-1,3-oxazinan-2-one], the IC50 was less than 100 nM. For the same compound, the inhibition at 0.1 µM under setting [1] amounted to 96.2%.
On the same counts, the results for `C[C@@H](c1ccc(Cl)cc1)N1CC[C@](CCC(N)=O)(c2ccccc2)OC1=O` [EXAMPLE 287, 3-((R)-3-((S)-1-(4-chlorophenyl)ethyl)-2-oxo-6-phenyl-1,3-oxazinan-6-yl)propanamide] are less than 100 nM and 89.8%.

The record behind these values is US8575156B2, “Cyclic inhibitors of 11β-hydroxysteroid dehydrogenase 1” (Vitae Pharmaceuticals, Inc., priority 2007, dated 2013).
